“Also recorded” adds a separate entry of the source.
Columns and labels:
Type in all cases: in vivo
[1] = system: 5×FAD mice; assay: Amyloid plaque accumulation (Congo Red staining); conditions: 5 mg/kg/day twice daily from 2 to 6 months
Description: Two month old 5×FAD and wild type (WT) littermates were treated with 5 mg/kg/day twice daily (+)-SW033291 (or vehicle) every day from 2 to 6 months. At 5 months of age, mice were injected with a single dose of 150 mg/kg bromodeoxyuridine (BrdU) to label replicating cells. At the age of 6 months (28 days after BrdU) mice were transcardially perfused and brains were dissected for examination of fixed tissue. […] Individual mouse data points are shown on the graph. Data was analyzed using two-way repeated measures ANOVA; * p<0.05, ** p<0.01, ***p<0.001, ****p<0.0001. All data is mean±SEM.

[2] = target: T1, 15-PGDH (Mus musculus, UniProt Q8VCC1); assay: 15-PGDH enzymatic activity in forebrain after TBI; conditions: Hpgd+/+ mice, 3 weeks after TBI, 5 mg/kg started 24 hours after injury
T1 construct: brain tissue was dissected 3 weeks later for biochemical determination of 15-PGDH enzymatic activity; from tissue; host or cells: mouse brain (forebrain after TBI; whole brain of 5xFAD and WT littermates)
T1 sequence (Q8VCC1 1-269): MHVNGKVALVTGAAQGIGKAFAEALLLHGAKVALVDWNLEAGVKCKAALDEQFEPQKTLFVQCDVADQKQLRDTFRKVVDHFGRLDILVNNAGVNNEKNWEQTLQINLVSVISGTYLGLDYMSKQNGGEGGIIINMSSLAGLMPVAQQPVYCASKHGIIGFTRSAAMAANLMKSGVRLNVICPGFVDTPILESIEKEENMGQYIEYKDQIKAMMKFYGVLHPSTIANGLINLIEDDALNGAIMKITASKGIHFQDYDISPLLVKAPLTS
Description: (§1) (A) 8 week old 15-PGDH wild-type (Hpgd^+/+) and 15-PGDH knockout (Hpgd^−/−) mice were subjected to TBI, and brain tissue was dissected 2 weeks later for western blot. […] Individual human data points are shown on the graph. Data was analyzed with Student's t test. * p<0.05. All data is mean±SEM. (C) Hpgd^+/+ mice were subjected to TBI at 8 weeks of age and then brain tissue was dissected 3 weeks later for biochemical determination of 15-PGDH enzymatic activity. […] Individual mouse data points are shown on the graph. Data was analyzed with Student's t test. ** p<0.01, **** p<0.0001. All data is mean±SEM. (D) 5×FAD mice and wild type littermates (WT) were administered either 5 mg/kg/day (+)-SW033291 twice daily (or vehicle) from 2 to 6 months of age, and then brains were dissected for biochemical assessment of 15-PGDH activity. […] Individual mouse data points are shown on the graph. Data was analyzed using two-way repeated measures ANOVA; * p<0.05, ** p<0.01, *** p<0.001. All data is mean±SEM.

[3] = system: 5×FAD mice; assay: Blood-brain barrier integrity by transmission electron microscopy
Description: BBB integrity was analyzed using transmission electron microscopy (TEM) in 6 month old 5×FAD mice. […] Mice were treated with 5 mg/kg/day (+)-SW033291 (or vehicle) every day from 2 to 6 months of age, and then sacrificed for TEM analysis. Individual mouse data points are shown on the graph. Data was analyzed using one-way ANOVA; * p<0.05, ** p<0.01, *** p<0.001. All data is mean±SEM.

[4] = system: 5×FAD mice; assay: Morris water maze in 5×FAD mice; conditions: 5 mg/kg/day twice daily from 2 to 6 months
Description: (A) Experimental Timeline: Two month old 5×FAD and wild type (WT) littermates were treated with 5 mg/kg/day twice daily (+)-SW033291 (or vehicle) every day from 2 to 6 months. Cognitive performance was tested using Morris water maze (MWM) as shown in the timeline. (B) Animals were trained to find the hidden platform in the MWM maze for 3 consecutive days (4 trials/day), and latency to find the hidden platform was measured. […] (C) To probe for spatial memory of the hidden platform, one day after the last learning day the animals were tested in the same MWM, except the platform was removed. Memory was measured as latency to first cross the area where the platform was located and the number of times an animal crossed that area. […] Individual mouse data points are shown on the graph. Data was analyzed using two-way repeated measures ANOVA; * p<0.05, ** p<0.01, *** p<0.001. All data is mean±SEM.

[5] = target: T1, 15-PGDH; assay: 15-PGDH activity in whole brain of 5×FAD and WT mice; conditions: 5 mg/kg/day twice daily from 2 to 6 months of age
Description: as §1

[6] = 6 month old 5×FAD mice, 5 mg/kg/day from 2 to 6 months of age, TEM

CCCC[S+]([O-])c1sc2nc(-c3cccs3)cc(-c3ccccc3)c2c1N (single isomer, unassigned; (+)) [(+)-SW033291]
amyloid plaque accumulation (Congo Red staining) [1]: does not alter amyloid plaque accumulation; also recorded: does not affect accumulation of amyloid plaque
15-PGDH enzymatic activity in the forebrain [2]: restored to normal; also recorded: returned to normal
blood-brain barrier (BBB) protection ([3]; 5×FAD mice): protects the blood-brain barrier (BBB) in 5×FAD mice
disruption of astrocyte end feet that envelope the BBB [3, 6]: prevented this disruption
enlargement of the perivascular space [3, 6]: prevented this disruption
average (escape) latency to find the hidden platform (learning) ([4]; 5×FAD and WT mice, 3 consecutive days): not different between groups
memory deficit / cognitive function (MWM probe) ([4]; 5×FAD mice, 5 mg/kg/day): alleviated this deficit
memory deficit / cognitive function (MWM probe) ([4]; 5×FAD mice, listed as (+)-SW033921, 5 mg/kg/day): protects cognitive function in 5×FAD mice
number of platform crosses ([4]; MWM probe test, 5×FAD mice): significantly decreased in the vehicle-treated 5×FAD group compared to the other groups
15-PGDH activity in the whole brain ([5]; 5×FAD mice, compared to 5×FAD vehicle, 5 mg/kg/day): significantly lowered 15-PGDH activity in the whole brain; also recorded: returned to normal
15-PGDH activity in the whole brain ([5]; WT mice, compared to WT vehicle): significantly lowered 15-PGDH activity in the whole brain

— patent US20230310390A1, “INHIBITORS OF SHORT-CHAIN DEHYDROGENASE ACTIVITY FOR TREATING NEURODEGENERATION” (CASE WESTERN RESERVE UNIVERSITY, priority 2020, published 2023)
